From PMC10946732
Like-named read-outs stand apart in the source and are kept apart here.

How the values were obtained:
[1] = Two-component stapling: SNAr of two Cys thiolates (C-S bonds) on para-C-F of 5,10,15,20-tetrakis(pentafluorophenyl)porphyrin (2), 1 equiv; Cs2CO3 8 equiv, TCEP 4 equiv, N2; conditions: the molecule shown is the open-chain precursor, DMSO (dry), 3.3 mM, 25.0 °C, 2.0 h
[2] = the molecule shown is the open-chain precursor; 42-membered ring

CC[C@H](C)[C@H](NC(=O)[C@H](CCCCN)NC(=O)CNC(=O)[C@H](CC(C)C)NC(=O)[C@H](CC(C)C)NC(=O)[C@H](Cc1ccc(O)cc1)NC(=O)CNC(=O)[C@H](C)N)C(=O)N[C@@H](CC(N)=O)C(=O)N[C@@H](CC(C)C)C(=O)N[C@@H](CCCCN)C(=O)N[C@@H](C)C(=O)N[C@@H](CSc1c(F)c(F)c(-c2c3nc(c(-c4c(F)c(F)c(F)c(F)c4F)c4ccc([nH]4)c(-c4c(F)c(F)c(F)c(F)c4F)c4nc(c(-c5c(F)c(F)c(F)c(F)c5F)c5ccc2[nH]5)C=C4)C=C3)c(F)c1F)C(=O)N[C@@H](C)C(=O)N[C@@H](C)C(=O)N[C@@H](CC(C)C)C(=O)N[C@@H](C)C(=O)N[C@@H](CCCCN)C(=O)N[C@@H](CCCCN)C(=O)N[C@@H](CS)C(=O)N[C@@H](CC(C)C)C(N)=O
ring closure, conversion by HPLC ([1]; 39-membered ring): 72%

C[C@H](N)C(=O)N[C@@H](CSc1c(F)c(F)c(-c2c3nc(c(-c4c(F)c(F)c(F)c(F)c4F)c4ccc([nH]4)c(-c4c(F)c(F)c(F)c(F)c4F)c4nc(c(-c5c(F)c(F)c(F)c(F)c5F)c5ccc2[nH]5)C=C4)C=C3)c(F)c1F)C(=O)N[C@@H](C)C(=O)N[C@@H](CS)C(=O)NCC(N)=O [H-Ala-Cys-Ala-Cys-Gly-NH2]
ring closure, conversion by HPLC ([1]; 24-membered ring): 6%

C[C@H](N)C(=O)N[C@@H](CSc1c(F)c(F)c(-c2c3nc(c(-c4c(F)c(F)c(F)c(F)c4F)c4ccc([nH]4)c(-c4c(F)c(F)c(F)c(F)c4F)c4nc(c(-c5c(F)c(F)c(F)c(F)c5F)c5ccc2[nH]5)C=C4)C=C3)c(F)c1F)C(=O)N[C@@H](C)C(=O)N[C@H](C(=O)NCC(=O)N[C@@H](CO)C(=O)N[C@H](C(=O)N[C@@H](CCC(N)=O)C(=O)N[C@@H](Cc1c[nH]cn1)C(=O)N[C@@H](CCC(N)=O)C(=O)N[C@@H](C)C(=O)N[C@@H](CS)C(=O)NCC(N)=O)[C@@H](C)O)[C@@H](C)O [H-Ala-Cys-Ala-Thr-Gly-Ser-Thr-Gln-His-Gln-Ala-Cys-Gly-NH2]
ring closure, conversion by HPLC ([1]; 48-membered ring): 35%

C[C@H](N)C(=O)N[C@@H](CSc1c(F)c(F)c(-c2c3nc(c(-c4c(F)c(F)c(F)c(F)c4F)c4ccc([nH]4)c(-c4c(F)c(F)c(F)c(F)c4F)c4nc(c(-c5c(F)c(F)c(F)c(F)c5F)c5ccc2[nH]5)C=C4)C=C3)c(F)c1F)C(=O)N[C@@H](C)C(=O)N[C@H](C(=O)NCC(=O)N[C@@H](CO)C(=O)N[C@H](C(=O)N[C@@H](CCC(N)=O)C(=O)N[C@@H](Cc1c[nH]cn1)C(=O)N[C@@H](CCC(N)=O)C(=O)N[C@@H](CS)C(=O)NCC(N)=O)[C@@H](C)O)[C@@H](C)O [H-Ala-Cys-Ala-Thr-Gly-Ser-Thr-Gln-His-Gln-Cys-Gly-NH2]
ring closure, conversion by HPLC ([1]; 45-membered ring): 36%

C[C@H](N)C(=O)N[C@@H](CSc1c(F)c(F)c(-c2c3nc(c(-c4c(F)c(F)c(F)c(F)c4F)c4ccc([nH]4)c(-c4c(F)c(F)c(F)c(F)c4F)c4nc(c(-c5c(F)c(F)c(F)c(F)c5F)c5ccc2[nH]5)C=C4)C=C3)c(F)c1F)C(=O)N[C@@H](CS)C(=O)NCC(N)=O [H-Ala-Cys-Cys-Gly-NH2]
ring closure, conversion by HPLC ([1]; 21-membered ring): 0%

C[C@H](N)C(=O)N[C@@H](CSc1c(F)c(F)c(-c2c3nc(c(-c4c(F)c(F)c(F)c(F)c4F)c4ccc([nH]4)c(-c4c(F)c(F)c(F)c(F)c4F)c4nc(c(-c5c(F)c(F)c(F)c(F)c5F)c5ccc2[nH]5)C=C4)C=C3)c(F)c1F)C(=O)N[C@@H](CCC(N)=O)C(=O)N[C@@H](Cc1c[nH]cn1)C(=O)N[C@@H](CCC(N)=O)C(=O)N[C@@H](CS)C(=O)NCC(N)=O [H-Ala-Cys-Gln-His-Gln-Cys-Gly-NH2]
ring closure, conversion by HPLC ([1]; 30-membered ring): 65% | ring closure, isolated yield ([1]; 30-membered ring): 39%

C[C@H](N)C(=O)N[C@@H](CSc1c(F)c(F)c(-c2c3nc(c(-c4c(F)c(F)c(F)c(F)c4F)c4ccc([nH]4)c(-c4c(F)c(F)c(F)c(F)c4F)c4nc(c(-c5c(F)c(F)c(F)c(F)c5F)c5ccc2[nH]5)C=C4)C=C3)c(F)c1F)C(=O)N[C@@H](Cc1c[nH]cn1)C(=O)N[C@@H](CS)C(=O)NCC(N)=O [H-Ala-Cys-His-Cys-Gly-NH2]
ring closure, conversion by HPLC ([1]; 24-membered ring): 43%

C[C@H](N)C(=O)N[C@@H](CSc1c(F)c(F)c(-c2c3nc(c(-c4c(F)c(F)c(F)c(F)c4F)c4ccc([nH]4)c(-c4c(F)c(F)c(F)c(F)c4F)c4nc(c(-c5c(F)c(F)c(F)c(F)c5F)c5ccc2[nH]5)C=C4)C=C3)c(F)c1F)C(=O)N[C@@H](Cc1c[nH]cn1)C(=O)N[C@@H](CCC(N)=O)C(=O)N[C@@H](CS)C(=O)NCC(N)=O [H-Ala-Cys-His-Gln-Cys-Gly-NH2]
ring closure, conversion by HPLC ([1]; 27-membered ring): 65%

C[C@H](N)C(=O)N[C@@H](CSc1c(F)c(F)c(-c2c3nc(c(-c4c(F)c(F)c(F)c(F)c4F)c4ccc([nH]4)c(-c4c(F)c(F)c(F)c(F)c4F)c4nc(c(-c5c(F)c(F)c(F)c(F)c5F)c5ccc2[nH]5)C=C4)C=C3)c(F)c1F)C(=O)N[C@@H](CO)C(=O)N[C@H](C(=O)N[C@@H](CCC(N)=O)C(=O)N[C@@H](Cc1c[nH]cn1)C(=O)N[C@@H](CCC(N)=O)C(=O)N[C@@H](CS)C(=O)NCC(N)=O)[C@@H](C)O [H-Ala-Cys-Ser-Thr-Gln-His-Gln-Cys-Gly-NH2]
ring closure, conversion by HPLC ([1]; 36-membered ring): 56% | ring closure, isolated yield ([1]; 36-membered ring): 24%

C[C@H](N)C(=O)N[C@@H](CSc1c(F)c(F)c(-c2c3nc(c(-c4c(F)c(F)c(F)c(F)c4F)c4ccc([nH]4)c(-c4c(F)c(F)c(F)c(F)c4F)c4nc(c(-c5c(F)c(F)c(F)c(F)c5F)c5ccc2[nH]5)C=C4)C=C3)c(F)c1F)C(=O)N[C@H](C(=O)N[C@@H](CCC(N)=O)C(=O)N[C@@H](Cc1c[nH]cn1)C(=O)N[C@@H](CCC(N)=O)C(=O)N[C@@H](CS)C(=O)NCC(N)=O)[C@@H](C)O [H-Ala-Cys-Thr-Gln-His-Gln-Cys-Gly-NH2]
ring closure, conversion by HPLC ([1]; 33-membered ring): 65% | ring closure, isolated yield ([1]; 33-membered ring): 25%

C[C@H](N)C(=O)N[C@@H](CSc1c(F)c(F)c(-c2c3nc(c(-c4c(F)c(F)c(F)c(F)c4F)c4ccc([nH]4)c(-c4c(F)c(F)c(F)c(F)c4F)c4nc(c(-c5c(F)c(F)c(F)c(F)c5F)c5ccc2[nH]5)C=C4)C=C3)c(F)c1F)C(=O)N[C@H](C(=O)NCC(=O)N[C@@H](CO)C(=O)N[C@H](C(=O)N[C@@H](CCC(N)=O)C(=O)N[C@@H](Cc1c[nH]cn1)C(=O)N[C@@H](CCC(N)=O)C(=O)N[C@@H](CS)C(=O)NCC(N)=O)[C@@H](C)O)[C@@H](C)O [H-Ala-Cys-Thr-Gly-Ser-Thr-Gln-His-Gln-Cys-Gly-NH2]
ring closure, conversion by HPLC ([1]; 42-membered ring): 46% | ring closure, isolated yield ([1]; 42-membered ring): 18%

C[C@H](N)C(=O)N[C@@H](CSc1c(F)c(F)c(-c2c3nc(c(-c4c(F)c(F)c(F)c(F)c4F)c4ccc([nH]4)c(-c4c(F)c(F)c(F)c(F)c4F)c4nc(c(-c5c(F)c(F)c(F)c(F)c5F)c5ccc2[nH]5)C=C4)C=C3)c(F)c1F)C(=O)N[C@H](C(=O)N[C@@H](Cc1c[nH]cn1)C(=O)NCC(=O)N[C@@H](CCC(N)=O)C(=O)N[C@H](C(=O)N[C@@H](CCC(N)=O)C(=O)N[C@@H](CO)C(=O)N[C@@H](CS)C(=O)NCC(N)=O)[C@@H](C)O)[C@@H](C)O [H-Ala-Cys-Thr-His-Gly-Gln-Thr-Gln-Ser-Cys-Gly-NH2]
ring closure, conversion by HPLC ([1]; 42-membered ring): 47% | ring closure, isolated yield ([1]; 42-membered ring): 10%

C[C@H](N)C(=O)N[C@@H](CSc1c(F)c(F)c(-c2c3nc(c(-c4c(F)c(F)c(F)c(F)c4F)c4ccc([nH]4)c(-c4c(F)c(F)c(F)c(F)c4F)c4nc(c(-c5c(F)c(F)c(F)c(F)c5F)c5ccc2[nH]5)C=C4)C=C3)c(F)c1F)C(=O)N[C@H](C(=O)N[C@@H](CO)C(=O)N[C@H](C(=O)N[C@@H](CCC(N)=O)C(=O)N[C@@H](Cc1c[nH]cn1)C(=O)N[C@@H](CCC(N)=O)C(=O)N[C@@H](CS)C(=O)NCC(N)=O)[C@@H](C)O)[C@@H](C)O [H-Ala-Cys-Thr-Ser-Thr-Gln-His-Gln-Cys-Gly-NH2]
ring closure, conversion by HPLC ([1]; 39-membered ring): 50%

CC[C@H](C)[C@H](NC(=O)[C@H](Cc1ccc(O)cc1)NC(=O)CNC(=O)[C@@H](NC(=O)[C@@H](NC(=O)[C@H](CSc1c(F)c(F)c(-c2c3nc(c(-c4c(F)c(F)c(F)c(F)c4F)c4ccc([nH]4)c(-c4c(F)c(F)c(F)c(F)c4F)c4nc(c(-c5c(F)c(F)c(F)c(F)c5F)c5ccc2[nH]5)C=C4)C=C3)c(F)c1F)NC(=O)[C@@H](N)CC(N)=O)C(C)C)C(C)C)C(=O)NCC(=O)N[C@@H](CCC(=O)O)C(=O)N[C@@H](CCCNC(=N)N)C(=O)N[C@@H](CS)C(=O)N[C@@H](CCC(N)=O)C(N)=O [H-Asn-Cys-Val-Val-Gly-Tyr-Ile-Gly-Glu-Arg-Cys-Gln-NH2]
ring closure, conversion by HPLC ([1]; 45-membered ring): 36%

CC(C)C[C@H](NC(=O)[C@H](C)NC(=O)[C@@H](NC(=O)[C@H](CCC(=O)O)NC(=O)[C@@H]1CCCN1C(=O)[C@H](C)NC(=O)[C@H](CCCCN)NC(=O)[C@@H](N)CSc1c(F)c(F)c(-c2c3nc(c(-c4c(F)c(F)c(F)c(F)c4F)c4ccc([nH]4)c(-c4c(F)c(F)c(F)c(F)c4F)c4nc(c(-c5c(F)c(F)c(F)c(F)c5F)c5ccc2[nH]5)C=C4)C=C3)c(F)c1F)[C@@H](C)O)C(=O)N[C@@H](CS)C(N)=O [H-Cys-Lys-Ala-Pro-Glu-Thr-Ala-Leu-Cys-NH2]
ring closure, conversion by HPLC [2]: 44%
